The test system of one data set is Hela cells. Nature of the data set: Internalization of TAT derived transporters, 24 hours incubation, fluorescence of cell extracts. In kind it is cell-based. The settings on record: FIG. 6; Y in position 2. As to the method:
The transporter sequences analyzed correspond to SEQ ID NOs: 52-94 plus SEQ ID NOs: 45, 47, 46, 43 and 99 (FIG. 6a) and SEQ ID NOs: 100-147 (FIG. 6b). […] Hela cells were incubated 24 hours in 96 well plate with […] of the respective transporters. The cells were then washed twice with an acidic buffer (0.2M Glycin, 0.15M NaCl, pH 3.0) and twice with PBS. Cells were broken by the addition of RIPA lysis buffer. The relative amount of internalized peptide was then determined by reading the fluorescence intensity (Fusion Alpha plate reader; PerkinElmer) of each extract followed by background subtraction.
Hela cells were incubated 24 hours in 96 well plate with […] of the r3-L-TAT-derived transporters. The cells were then washed twice with an acidic buffer (0.2M Glycin, 0.15M NaCl, pH 3.0) and twice with PBS. Cells were broken by the addition of RIPA lysis buffer. The relative amount of internalized peptide was then determined by reading the fluorescence intensity (Fusion Alpha plate reader; PerkinElmer) of each extract followed by background subtraction

Another data set deals with T1, His-JNK1 (Homo sapiens, UniProt P45983).
T1 construct: His; purchased Upstate 14-327
T1 sequence (P45983 1-384 isoform P45983-2): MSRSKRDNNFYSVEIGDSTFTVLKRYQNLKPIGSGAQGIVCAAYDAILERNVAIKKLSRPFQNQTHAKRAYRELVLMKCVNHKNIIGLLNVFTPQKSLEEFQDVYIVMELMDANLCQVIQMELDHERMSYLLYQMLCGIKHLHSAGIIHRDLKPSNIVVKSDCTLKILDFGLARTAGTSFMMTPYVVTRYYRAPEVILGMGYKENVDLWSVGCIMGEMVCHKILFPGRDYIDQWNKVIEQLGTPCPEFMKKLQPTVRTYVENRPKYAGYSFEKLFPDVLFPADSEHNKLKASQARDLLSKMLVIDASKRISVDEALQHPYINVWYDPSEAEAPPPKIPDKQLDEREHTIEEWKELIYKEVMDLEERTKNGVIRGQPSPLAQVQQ
The data set can be described thus: AlphaScreen assay, inhibition of JNK1 mediated phosphorylation of biotin-cJun substrate. In kind it is biochemical. To be noted: compared with L-TAT-IB1; JNK isoform not stated. As to the method:
In the following the standard operating procedure will be set forth describing how the Inhibitory efficacy of JNK inhibitors according to the present invention was measured. The method allows to measure in vitro, in a non radioactive standardized assay, the ability of a candidate compound to decrease the phosphorylation of the c-Jun specific substrate by JNK. Moreover, it will be illustrated how to determine the inhibitory effect (IC50) and the Ki of a chosen compound for JNK.
• His-JNK1 (ref 14-327, Upstate, 10 μg in 100 μl: concentration: 2.2 μM) 5 nM final • His-JNK2 (ref 14-329, Upstate, 10 μg in 100 μl: concentration: 2 μM) 5 nM final • His-JNK3 (ref 14-501, Upstate, 10 μg in 100 μl: concentration: 1.88 μM) 5 nM final • Anti-Phospho-cJun (ref 06-828, Upstate, lot DAM1503356, concentration: 44.5 μM) 10 nM final • Biotin-cJun (29-67): • sequence: Biotin-[…] […]
The bioluminescent energy transfer was read on the Fusion Alpha Plate reader (Perkin Elmer). […]

Data set [1] can be described thus: Stability (half-life) of JNK inhibitors in human serum, UPLC-MS. As to the method:
The experiment was performed as described by Tugyi et al. (Proc Natl Acad Sci USA, 2005, 413-418). The remaining intact peptide was quantified by UPLC-MS.

Data set [2] has as its system primary rat lymph-nodes purified T cells. Nature of the data set: CD3/CD28-induced IL-2 release in primary rat lymph-nodes purified T cells. To be noted: inhibitor added 1 h before CD3/CD28 (2 μg/mL), supernatant after 24 h. The class given is cell-based. As to the method: Control rat were sacrificed and lymph-nodes were harvested. T cells further were purified (using magnetic negative selection) and plated into 96-well plates at 200,000 cells/well. Cells were treated with anti-rat CD3 and anti-rat CD28 antibodies (2 μg/mL). JNK inhibitor with SEQ ID NO: 172 was added to the cultures 1 h before CD3/CD28 treatment and IL-2 release was assessed in supernatant 24 h after treatment.
Control animal were sacrificed, lymph nodes (LN) were harvested and kept in complete RPMI medium. LN were smashed with complete RPMI on 70 μm filter using a 5 ml piston. A few drops of media were added to keep strainer wet. Cells were centrifuged for 7 min at 450 g and 4° c. Pellet was resuspended in 5 ml fresh medium. Cells were passed again through cell strainer. An aliquot of cells was counted, while cells were centrifuged again 10 min at 1400 rpm and 4° c. Cells were resupended in MACS buffer (80 μl of MACS buffer per 10^7 cells). 10 μl of anti-rat MHC microbeads were added per 10 million cells, cells were incubated for 15 min at 4°-8° C. Cells were washed with 15 ml MACS buffer and centrifuge for 7 min at 700 g and 4° C. […] Resuspended cells were counted and plated at density of 200000 cells/well in 100 μl of complete medium. […] Cytokines were then measured using standard Elisa kits. Results are expressed as pg/ml of supernatant of the measured cytokine. […]

Where a SMILES comes first, the peptide text is derived from it. Where no end group is shown, it is not given here. [ ]: non-standard residue; d: D form.

As to “rYKRrQRRr ([dR]YKR[dR]QRR[dR]) [SEQ ID NO: 142]”, the transporter activity entry in the data set with Hela cells is “highest transporter activity”.

As for “dqsrpvqpflnlttprkprpprrrqrrkkrg ([dD][dQ][dS][dR][dP][dV][dQ][dP][dF][dL][dN][dL][dT][dT][dP][dR][dK][dP][dR][dP][dP][dR][dR][dR][dQ][dR][dR][dK][dK][dR]G) [SEQ ID NO: 197]”, in the data set with His-JNK1, the “inhibitory capacity (JNK inhibition, FIG. 4)” value is recorded as “significant decrease in inhibitory capacity in comparison to L-TAT-IB1”. In data set [1], the “sensitivity to proteolytic degradation” value is recorded as “extremely stable towards proteolytic digestion”. In addition, in data set [2], the “CD3/CD28-induced IL-2 release” value is “Dose-dependent inhibition”.

Take `CC(C)C[C@H](NC(=O)[C@H](CC(N)=O)NC(=O)[C@H](CC(C)C)NC(=O)[C@@H](NC(=O)[C@@H](C)NC(=O)[C@@H]1CCCN1C(=O)[C@H](CCCNC(=N)N)NC(=O)[C@@H](CCCCN)NC(=O)[C@@H]1CCCN1C(=O)[C@H](CCCNC(=N)N)NC(=O)[C@@H](CCCNC(=N)N)NC(=O)[C@H](CCCNC(=N)N)NC(=O)[C@H](CCCNC(=N)N)NC(=O)[C@H](CCC(N)=O)NC(=O)[C@@H](CCCNC(=N)N)NC(=O)[C@H](CCCNC(=N)N)NC(=O)[C@H](CCCCN)NC(=O)[C@H](CCCCN)NC(=O)[C@H](N)CCCNC(=N)N)[C@@H](C)O)C(=O)N[C@H](Cc1ccccc1)C(N)=O` [SEQ ID NO: 172, rKKRrQRRrRPkRPaTLNLf] (H-[dR]KKR[dR]QRR[dR]RP[dK]RP[dA]TLNL[dF]-NH2; N-terminus assumed): the “time until completely degraded” value in data set [1] (human serum (50%; 10 and 50% in PBS 1×), 0.1 mM peptide) stood at 14 days.

The values are drawn from patent US8981052B2, “JNK inhibitor molecules” (Xigen Inflammation Ltd., priority 2010, dated 2015).
